Assay results published in publication PMC5268383, “Inhibition of STAT3 by Anticancer Drug Bendamustine” (PLoS ONE, 2017).

Experiments:
[1] = test system: MDA-MB-468 cells (high P-STAT3); assay: WST cell proliferation assay, MDA-MB-468; format: cell-based, human; conditions: 0.1-100 μM, 48 h, WST-8
Procedure: (§1) Cells were plated in a 96-well tissue culture plate (1000 cells per well) and incubated for 48 h. After incubation, the cells were treated with vehicle, 0.1–100 μM BENDA, or HP2 for 48 h. Samples were assayed in triplicate. After incubation, WST-8 solution (10 μL; Dojindo Molecular Technologies, Rockville, MD, USA) was added to each well and incubated at 37°C for 4 h, and the absorbance was read at 450 nm.

[2] = molecular target: T1, rhSTAT3 (Homo sapiens, UniProt P40763); assay: Competition assay with cysteine-blocking reagent Alexa Fluor 488 C5 maleimide; format: binding; conditions: 50 or 100 μM compound, 2 h
T1 construct: Full-length cDNAs were obtained from a human cDNA library by PCR; Avi-tag (biotinylated in BirA-BL21) (N); made in house; host or cells: Escherichia coli BirA-BL21
Procedure: rhSTAT3 (0.89 μM) in 100 mM HEPES was incubated with 10 μM Alexa Fluor 488 C5 maleimide (Invitrogen, Paisley, UK), a thiol-reactive probe, in the presence or absence of 50 or 100 μM BENDA or HP2 for 2 h at room temperature. Samples were diluted in SDS-PAGE sample buffer without boiling or 2-mercaptoethanol and run on an SDS-PAGE gel. The protein was transferred to a nitrocellulose membrane and then blotted with Ni-HRP. The Alexa-labeled rhSTAT3 was analyzed by fluorescence (excitation/emission: 493/516 nm) and western blotting with Ni-HRP.

[3] = molecular target: T2, STAT3-DNA complex (c-myc promoter) in MDA-MB-468 cells (Homo sapiens, UniProt P40763); assay: ChIP assay, c-myc promoter binding by STAT3; format: cell-based; conditions: MDA-MB-468, 8 h; BENDA 25, 50, 100 μM, HP2 50, 100 μM
T2 construct: endogenous in cells; host or cells: MDA-MB-468
Procedure: A ChIP assay was performed with an ExactaChIP Human/Mouse STAT3 ChIP kit (R&D Systems, Minneapolis, MN, USA). MDA-MB-468 cancer cells were fixed with 1% formaldehyde and treated with the lysis buffer. After sonication, anti-STAT3 antibody or normal mouse IgG was added to the extract, followed by precipitation with Protein G Plus/Protein A Agarose Suspension. The eluted DNA fraction was used for PCR with human c-myc primers.

[4] = test system: MDA-MB-453 cells (low P-STAT3); assay: WST cell proliferation assay, MDA-MB-453; format: cell-based, human; conditions: 0.1-100 μM, 48 h, WST-8
Procedure: as §1

[5] = molecular target: T3, recombinant human STAT3 SH2 domain (Homo sapiens, UniProt P40763); assay: AlphaScreen SH2 binding assay, STAT3; conditions: AlphaScreen, 50 nM protein, FITC-GpYLPQTV; read-out: IC50, inhibition of STAT3-SH2 binding to phosphotyrosine peptide
T3 construct: Full-length cDNAs were obtained from a human cDNA library by PCR; Avi-tag (biotinylated in BirA-BL21) (N); made in house; host or cells: Escherichia coli BirA-BL21
Procedure: AlphaScreen assays were performed in a final reaction volume of 25 μL of the assay buffer, containing 10 mM HEPES-NaOH (pH 7.4), 50 mM NaCl, 1 mM EDTA (pH 8.0), 0.1% NP-40, and 10 ng/mL BSA in a 96-well microtiter plate at 25°C. The labeled Phospho-Tyr (pTyr) peptide probe was 5-carboxyfluorescein (FITC)-GpYLPQTV for STAT3, FITC-GpYDKPHVL for STAT1, and FITC-PSpYVNVQN for Grb2. A DMSO solution of BENDA was incubated with 50 nM of each SH2-containing protein for 15 min, 50 nM of the corresponding FITC-pTyr peptide was added, and the mixture was incubated for 90 min. Streptavidin-coated donor beads and anti-FITC acceptor beads were added and incubated for 90 min before the signals were measured with an Envision Xcite plate reader (PerkinElmer Life Sciences, Waltham, MA, USA).

[6] = molecular target: T4, cellular STAT3 in MDA-MB-468 cells (Homo sapiens, UniProt P40763); assay: Pull-down assay using Bio-BENDA, anti-STAT3 immunoprecipitation; format: cell-based; conditions: 50 μM Bio-BENDA plus excess free drug, 4 h
T4 construct: endogenous in cells; host or cells: MDA-MB-468
Procedure: MDA-MB-468 cells were treated with biotinylated BENDA (Bio-BENDA) in the presence or absence of an excess amount of free drugs for 4 h and then lysed in PhosphoSafe™ Extraction Reagent (Merck, Darmstadt, Germany). Lysate (200 μL) was precleared with a mixture of Protein G Plus/Protein A Agarose Suspension (EMD Millipore, Billerica, MA, USA) for 1 h at 4°C and protein A and G agarose were removed by centrifugation at 13,000 rpm for 10 min. The lysate (200 μL) was immunoprecipitated with STAT3 antibody (1 μL) overnight at 4°C on a shaker and the immunocomplex was captured by the addition of a Protein G Plus/Protein A Agarose Suspension (30 μL) slurry for 1 h at 4°C. Samples were washed five times with lysis buffer and then boiled four times in SDS-PAGE sample buffer and run on an SDS-PAGE gel. The protein was transferred to a nitrocellulose membrane. The membranes were blocked in 5% skim milk in TBS/0.1% Tween 20. They were then incubated with streptavidin-HRP diluted at 1:2000 in 1.5% skim milk in TBS (pH7.4)/0.1% Tween 20 overnight at 4°C. Immunoblots were developed by using a chemiluminescent substrate.

[7] = molecular target: T5, nuclear STAT3 of MDA-MB-468 cells (Homo sapiens, UniProt P40763); assay: STAT3 DNA binding assay (TransAM ELISA); format: cell-based; conditions: MDA-MB-468, 24 h; BENDA 25, 50, 100 μM, HP2 100 μM
T5 construct: endogenous in cells; host or cells: MDA-MB-468
Procedure: The DNA-binding activity of STAT3 was evaluated with a TransAM ELISA kit (Active Motif, Carlsbad, CA, USA). The assay and nuclear extract preparation were performed according to the manufacturer’s instructions. Heat-denatured nuclear extract was used as a negative control. The nuclear extract (20 μg) was added to each well of a 96-well microtiter plate coated with immobilized oligonucleotides containing the STAT3 consensus binding site and incubated at room temperature for 1 h. They were incubated with anti-STAT3 antibody for 1 h at room temperature, followed by HRP-conjugated antibody for 1 h at room temperature. The developing solution was added, the reaction was terminated by the addition of stop solution, and the absorbance was measured at 450 nm with a reference wavelength of 655 nm (SpectraMax M5SK, Molecular Devices, Sunnyvale, CA, USA).

[8] = molecular target: T6, STAT3-CFP / STAT3-YFP in HEK293 cells (Homo sapiens, UniProt P40763); assay: FRET assay of STAT3 dimerization; format: cell-based; conditions: HEK293, 10, 20 or 50 μM, pretreatment before 50 ng/mL IL-6 stimulation
T6 construct: expressed in transfected cells; host or cells: HEK293
Procedure: The expression vectors for the fusion proteins STAT3-CFP and STAT3-YFP were prepared by the addition of STAT3 cDNA to pAmCyan1-N1 and pZsyellow1-N1. The vector mixture (1:1) was transfected into HEK293 cells with Lipofectamine 2000. The cells were cultured with 2% FBS DMEM for 48 h in a 96-well microtiter plate, treated with 0, 10, 20, or 50 μM BENDA or HP2 in a final DMSO concentration of 0.2% for 24 h, and then stimulated with 50 ng/mL IL-6 for a further 1 h. Fluorescence signals were measured (SpectraMax M5SK). The signals measured by FRET (excitation/emission: 436/528 nm) were corrected for crosstalk signals from cyan (excitation/emission: 436/488 nm) and yellow (excitation/emission: 517/528 nm).

T5 sequence (P40763 2-770 limits assumed): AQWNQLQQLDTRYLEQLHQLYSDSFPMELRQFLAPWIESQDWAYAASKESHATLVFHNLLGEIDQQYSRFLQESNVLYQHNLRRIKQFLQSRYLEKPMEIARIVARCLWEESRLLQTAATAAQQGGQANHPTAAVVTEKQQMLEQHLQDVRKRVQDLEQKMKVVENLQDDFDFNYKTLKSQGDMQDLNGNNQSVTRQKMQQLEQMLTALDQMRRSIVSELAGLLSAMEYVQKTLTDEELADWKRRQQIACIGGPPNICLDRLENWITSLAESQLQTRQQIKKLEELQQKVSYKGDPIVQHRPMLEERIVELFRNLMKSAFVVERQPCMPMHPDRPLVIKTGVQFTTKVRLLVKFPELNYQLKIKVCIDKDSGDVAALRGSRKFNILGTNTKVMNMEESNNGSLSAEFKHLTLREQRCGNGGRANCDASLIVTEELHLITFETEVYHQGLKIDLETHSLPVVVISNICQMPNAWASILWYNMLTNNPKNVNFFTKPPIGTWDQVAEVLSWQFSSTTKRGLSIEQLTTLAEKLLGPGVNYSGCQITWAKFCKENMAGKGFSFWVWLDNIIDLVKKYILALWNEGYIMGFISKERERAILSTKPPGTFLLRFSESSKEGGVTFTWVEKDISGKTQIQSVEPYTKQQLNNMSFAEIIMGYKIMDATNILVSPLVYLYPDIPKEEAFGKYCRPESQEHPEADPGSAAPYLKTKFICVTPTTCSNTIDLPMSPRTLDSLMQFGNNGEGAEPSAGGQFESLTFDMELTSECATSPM
T2 sequence (P40763 2-770 limits assumed, one chain of several): as the sequence (P40763 2-770 limits assumed) above
T4 sequence (P40763 2-770 limits assumed): as above
T3 sequence (P40763 whole entry, the tested form may be a part): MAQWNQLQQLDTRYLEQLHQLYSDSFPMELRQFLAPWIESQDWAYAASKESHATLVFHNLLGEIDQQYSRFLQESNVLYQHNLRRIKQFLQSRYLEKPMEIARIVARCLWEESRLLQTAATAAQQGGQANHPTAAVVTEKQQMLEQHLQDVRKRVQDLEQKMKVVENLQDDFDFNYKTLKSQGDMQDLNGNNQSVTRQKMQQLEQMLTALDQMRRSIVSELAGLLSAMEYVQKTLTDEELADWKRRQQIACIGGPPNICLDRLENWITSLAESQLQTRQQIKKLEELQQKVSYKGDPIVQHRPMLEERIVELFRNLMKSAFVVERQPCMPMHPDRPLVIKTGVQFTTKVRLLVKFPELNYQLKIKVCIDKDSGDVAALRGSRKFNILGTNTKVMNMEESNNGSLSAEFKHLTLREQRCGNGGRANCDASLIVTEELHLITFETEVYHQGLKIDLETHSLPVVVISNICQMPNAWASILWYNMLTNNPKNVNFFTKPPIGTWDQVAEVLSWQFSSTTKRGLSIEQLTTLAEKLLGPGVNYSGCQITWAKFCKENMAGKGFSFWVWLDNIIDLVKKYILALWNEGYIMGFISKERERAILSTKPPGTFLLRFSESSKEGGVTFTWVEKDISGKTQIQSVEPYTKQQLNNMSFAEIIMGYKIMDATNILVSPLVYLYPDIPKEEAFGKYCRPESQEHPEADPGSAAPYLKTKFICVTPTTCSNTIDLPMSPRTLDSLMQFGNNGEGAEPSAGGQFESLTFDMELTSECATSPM
T6 sequence (P40763 whole entry): as the sequence (P40763 whole entry, the tested form may be a part) above
T1 sequence (P40763 whole entry): as the sequence (P40763 whole entry, the tested form may be a part) above

## Cn1c(CCCC(=O)O)nc2cc(N(CCO)CCO)ccc21 [HP2, dihydroxy bendamustine]
[1]
  Inhibition of proliferation of MDA-MB-468 cells: did not inhibit proliferation
[2]
  Effect on fluorescence intensity of Alexa-labeled rhSTAT3: hardly observed
[3]
  Amplified c-myc promoter band in STAT3 ChIP: clearly detected
[4]
  Inhibition of proliferation of MDA-MB-453 cells: did not inhibit proliferation
[5]
  IC50: > 100 µM
[6]
  Competition of Bio-BENDA STAT3 band intensity by excess free drug: no reduction
[7]
  Inhibition of STAT3 binding to oligonucleotides containing STAT3 consensus binding site: did not
[8]
  Effect on FRET signals (STAT3 dimerization): unchanged
